Reference: PubChem BioAssay (NCI)
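Protocol summary: plate cells (96-well), add compound at 5 concentrations, incubate 48 h, interpolate endpoints linearly. GI50 is the concentration that inhibits growth by half. TGI marks complete inhibition of growth.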

Tests used:
Assay in all cases: NCI anticancer screen, dose series, 48 h
[1] = system: ACHN renal
[2] = system: CCRF-CEM leukemia
[3] = system: HOP-62 NSCLC
[4] = system: HOP-92 NSCLC
[5] = system: HS 578T breast
[6] = system: NCI-H460 lung
[7] = system: RXF 393 renal
[8] = system: SF-295 CNS
[9] = system: SK-MEL-28 melanoma
[10] = system: SNB-19 CNS

COc1cc2c3c(n(CCNCCCNCCn4c5c(c6cc(OC)c(OC)cc6c4=O)C(=O)c4ccccc4-5)c(=O)c2cc1OC)-c1ccccc1C3=O
GI50 [1]: 693 nM
TGI [1]: > 56300 nM
GI50 [2]: < 17.4 nM
TGI [2]: 1630 nM
GI50 [3]: 61.4 nM
TGI [3]: 1900 nM
GI50 [4]: 65.6 nM
TGI [4]: 556 nM
GI50 [5]: > 49000 nM
TGI [5]: > 100000 nM
GI50 [6]: 71.9 nM
TGI [6]: 4680 nM
GI50 [7]: 1140 nM
TGI [7]: 12100 nM
GI50 [8]: 105 nM
TGI [8]: 2110 nM
GI50 [9]: 1780 nM
TGI [9]: 5070 nM
GI50 [10]: 162 nM
TGI [10]: 4260 nM
